We go through 16 molecules from patent publication US9796711B2, “Substituted pyrazolo[3,4-b]pyridin-6-carboxylic acids and method of use” (AbbVie S.àr.l., priority 2015, dated 2017).

Assay [1] concerns the target T1, ΔF508-CFTR (Homo sapiens, UniProt P13569, DEL508-508).
T1 construct: host or cells: CFBE41o-, doxycycline-inducible
Kind of assay: CFTR cell surface levels using HRP-tagged ΔF508-CFTR expressing CFBE cells, in the presence of a co-corrector. Type of assay: cell-based. The conditions noted are these: HRP-tagged ΔF508-CFTR expressing CFBE cells, in the presence of 3 μM co-corrector; for EC50: read-out: EC50. Put shortly: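 Cells were seeded with 0.5 μg/mL doxycycline and held 68 h at 37 °C. Test compounds plus 3 μM co-corrector (final 0.1% DMSO) were then added for 20 h at 33 °C. Washed cells received HRP substrate, and luminescence was normalized between DMSO and 3 μM co-corrector controls.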

Assay [2] addresses T1, ΔF508-CFTR. Briefly: CFTR cell surface levels using HRP-tagged ΔF508-CFTR expressing CFBE cells, intrinsic corrector capacity. Type of assay: cell-based. The note with it: for EC50: read-out: EC50. The gist of the method:
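Here the cells express ΔF508-CFTR with horseradish peroxidase inserted in extracellular loop 4, so only rescued channel at the surface gives luminescent signal. Compounds act on their own, 20 h at the reduced temperature of 33 °C; values are percent activity relative to DMSO and a 3 μM corrector.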

Setting [3] is: HRP-tagged ΔF508-CFTR expressing CFBE cells, intrinsic corrector capacity (no co-corrector), 33° C., 20 hours.
Setting [4] is: HRP-tagged ΔF508-CFTR CFBE41o- cells, compounds alone (intrinsic corrector capacity), 20 hours at 33° C., positive control 3 μM corrector.
Where [5] appears, read: HRP-tagged ΔF508-CFTR CFBE41o- cells, compounds alone (intrinsic corrector capacity), 20 hours at 33° C.

Where only a bound is given, the exact number is not on record here.

T1 sequence (P13569 with tags, fused parts or gaps DEL508-508): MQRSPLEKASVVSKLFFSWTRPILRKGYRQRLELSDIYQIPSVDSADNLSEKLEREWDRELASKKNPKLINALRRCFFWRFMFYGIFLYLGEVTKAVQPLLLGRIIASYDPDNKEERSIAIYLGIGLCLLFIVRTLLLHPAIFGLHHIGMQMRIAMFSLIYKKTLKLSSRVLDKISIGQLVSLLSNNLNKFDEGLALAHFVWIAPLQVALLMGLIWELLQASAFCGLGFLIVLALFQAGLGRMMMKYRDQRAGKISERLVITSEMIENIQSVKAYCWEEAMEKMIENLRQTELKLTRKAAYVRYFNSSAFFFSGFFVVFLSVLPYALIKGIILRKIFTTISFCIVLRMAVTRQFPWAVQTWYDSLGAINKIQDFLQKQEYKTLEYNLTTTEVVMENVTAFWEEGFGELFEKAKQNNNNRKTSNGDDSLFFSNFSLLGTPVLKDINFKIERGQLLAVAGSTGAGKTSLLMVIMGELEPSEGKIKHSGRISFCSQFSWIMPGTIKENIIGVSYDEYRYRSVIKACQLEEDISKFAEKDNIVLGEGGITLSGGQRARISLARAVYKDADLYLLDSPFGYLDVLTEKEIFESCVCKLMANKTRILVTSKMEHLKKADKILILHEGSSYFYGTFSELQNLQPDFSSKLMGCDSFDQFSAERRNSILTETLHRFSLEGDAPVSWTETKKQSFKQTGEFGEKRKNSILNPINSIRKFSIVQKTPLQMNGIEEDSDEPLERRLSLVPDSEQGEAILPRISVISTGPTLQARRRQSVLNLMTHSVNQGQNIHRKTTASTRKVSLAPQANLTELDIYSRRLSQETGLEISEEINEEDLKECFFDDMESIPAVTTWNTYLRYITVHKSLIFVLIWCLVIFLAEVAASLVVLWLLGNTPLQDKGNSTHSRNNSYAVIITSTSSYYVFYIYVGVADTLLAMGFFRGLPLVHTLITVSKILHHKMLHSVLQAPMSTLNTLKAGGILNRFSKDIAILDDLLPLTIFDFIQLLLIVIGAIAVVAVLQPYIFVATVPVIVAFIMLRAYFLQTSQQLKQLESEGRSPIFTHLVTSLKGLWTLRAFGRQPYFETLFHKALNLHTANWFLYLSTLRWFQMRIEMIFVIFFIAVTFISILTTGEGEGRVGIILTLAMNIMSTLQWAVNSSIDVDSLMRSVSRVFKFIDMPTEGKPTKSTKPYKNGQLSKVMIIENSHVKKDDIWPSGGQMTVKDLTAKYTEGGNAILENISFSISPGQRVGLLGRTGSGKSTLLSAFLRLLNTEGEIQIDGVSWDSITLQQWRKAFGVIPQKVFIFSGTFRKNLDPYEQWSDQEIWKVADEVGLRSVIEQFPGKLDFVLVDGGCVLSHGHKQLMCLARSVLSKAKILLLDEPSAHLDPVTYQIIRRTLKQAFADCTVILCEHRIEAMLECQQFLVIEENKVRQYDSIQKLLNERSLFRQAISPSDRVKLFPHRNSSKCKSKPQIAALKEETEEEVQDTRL

In the case of `CC1(COc2cc(C(=O)O)nc3c2c(C2CCC2)nn3-c2ccccc2)CC1` [compound 630, 3-cyclobutyl-4-[(1-methylcyclopropyl)methoxy]-1-phenyl-1H-pyrazolo[3,4-b]pyridine-6-carboxylic acid], on ΔF508-CFTR [1], the “% Activation” value turned out to be 323.7% and the concentration giving a half-maximal response (EC50) stood at 254 nM. Further, at ΔF508-CFTR [2] (setting [3]), the “% Activation” value is given as 136.15% and the EC50 was found to be 308 nM.

For `Cc1nn(-c2ccccc2)c2nc(C(=O)O)cc(N3CCC(F)(F)C3)c12` [compound 299, 4-(3,3-difluoropyrrolidin-1-yl)-3-methyl-1-phenyl-1H-pyrazolo[3,4-b]pyridine-6-carboxylic acid], the “% Activation” value on ΔF508-CFTR [1] worked out at 194.8%; at ΔF508-CFTR [2] (setting [4]), 51.845%. In addition, the EC50 on ΔF508-CFTR [1] and on ΔF508-CFTR [2] (setting [5]) was 2510 nM in each case.

Take `Cc1nn(-c2ccccc2)c2nc(C(=O)O)cc(N3CC4CC4C3)c12` (stereo not shown) [compound 304, 4-(3-azabicyclo[3.1.0]hexan-3-yl)-3-methyl-1-phenyl-1H-pyrazolo[3,4-b]pyridine-6-carboxylic acid]: the “% Activation” value on ΔF508-CFTR [1] came out at 254.9%; on ΔF508-CFTR [2] (setting [4]), 98.425%. The EC50 on ΔF508-CFTR [1] amounted to 1990 nM; at ΔF508-CFTR [2] (setting [5]), 2510 nM.

Consider `CO[C@@H]1CCC[C@@H](n2nc(C(C)C)c3c(-c4ccc(N5CCOCC5)cc4)cc(C(=O)O)nc32)C1` [compound 214, 1-[(1R,3R)-3-methoxycyclohexyl]-4-[4-(morpholin-4-yl)phenyl]-3-(propan-2-yl)-1H-pyrazolo[3,4-b]pyridine-6-carboxylic acid], for which the “% Activation” value is reported as 323% at ΔF508-CFTR [1] and 154% at ΔF508-CFTR [2] (setting [4]). Further, the results for the EC50 at ΔF508-CFTR [1] and on ΔF508-CFTR [2] (setting [5]) were 609 nM and 820 nM, respectively.

As for `CC(C)c1nn(-c2ccnc(N3CCCC3)c2)c2nc(C(=O)O)cc(-c3ccc(N4CCC(C#N)CC4)cc3)c12` [compound 392, 4-[4-(4-cyanopiperidin-1-yl)phenyl]-3-(propan-2-yl)-1-[2-(pyrrolidin-1-yl)pyridin-4-yl]-1H-pyrazolo[3,4-b]pyridine-6-carboxylic acid], the “% Activation” value on ΔF508-CFTR [1] was found to be 519.35%; at ΔF508-CFTR [2] (setting [4]), 302%. Also, the EC50 on ΔF508-CFTR [1] turned out to be 323 nM; on ΔF508-CFTR [2] (setting [5]), 345 nM.

As for `CC(C)c1nn(-c2cccc(N3CC(F)C3)c2)c2nc(C(=O)O)cc(-c3ccc(N4CCOCC4)cc3)c12` [compound 167, 1-[3-(3-fluoroazetidin-1-yl)phenyl]-4-[4-(morpholin-4-yl)phenyl]-3-(propan-2-yl)-1H-pyrazolo[3,4-b]pyridine-6-carboxylic acid], the “% Activation” value on ΔF508-CFTR [1] amounted to 568.2%; at ΔF508-CFTR [2] (setting [4]) it was 301.1%. The EC50 came out at 535 nM on ΔF508-CFTR [1] and 596 nM on ΔF508-CFTR [2] (setting [5]).

As for `N#CC1CCN(c2ccc(-c3cc(C(=O)O)nc4c3c(C3CCC3)nn4-c3cccc(N4CCCC4)c3)cc2)CC1` [compound 247, 4-[4-(4-cyanopiperidin-1-yl)phenyl]-3-cyclobutyl-1-[3-(pyrrolidin-1-yl)phenyl]-1H-pyrazolo[3,4-b]pyridine-6-carboxylic acid], the “% Activation” value at ΔF508-CFTR [1] is reported as 569.07%; at ΔF508-CFTR [2] (setting [4]), 390.27%. The results for the EC50 on ΔF508-CFTR [1] and at ΔF508-CFTR [2] (setting [5]) were 332 nM and 420 nM, respectively.

Regarding `N#CC1CCN(C2CCN(c3cc(C(=O)O)nc4c3c(C3CCC3)nn4-c3ccc(F)cc3)CC2)CC1` [compound 860, 4-(4-cyano[1,4′-bipiperidin]-1′-yl)-3-cyclobutyl-1-(4-fluorophenyl)-1H-pyrazolo[3,4-b]pyridine-6-carboxylic acid], on ΔF508-CFTR [1], the “% Activation” value is reported as 576.25% and the EC50 was determined as 417 nM. Also, on ΔF508-CFTR [2] (setting [3]), the “% Activation” value is listed as 383% and the EC50 is 517 nM.

In the case of `CS(=O)(=O)C1CCN(c2cc(C(=O)O)nc3c2c(C2CCC2)nn3-c2ccccc2)CC1` [compound 411, 3-cyclobutyl-4-[4-(methanesulfonyl)piperidin-1-yl]-1-phenyl-1H-pyrazolo[3,4-b]pyridine-6-carboxylic acid], on ΔF508-CFTR [1], the “% Activation” value amounted to 456% and the EC50 turned out to be 976 nM. Besides, at ΔF508-CFTR [2] (setting [3]), the “% Activation” value came to 280.85% and the EC50 was 3340 nM.

As to `CC(=O)N1CC2CN(c3cc(C(=O)O)nc4c3c(C(C)C)nn4-c3cccc(C)c3)CC2C1` (stereo not shown) [compound 233, 4-(5-acetylhexahydropyrrolo[3,4-c]pyrrol-2(11/)-yl)-1-(3-methylphenyl)-3-(propan-2-yl)-1H-pyrazolo[3,4-b]pyridine-6-carboxylic acid], the “% Activation” value came out at 249.55% on ΔF508-CFTR [1] and 72.33% at ΔF508-CFTR [2] (setting [4]). For the same molecule, the concentration for a half-maximal effect (EC50) at ΔF508-CFTR [1] came to 3340 nM; on ΔF508-CFTR [2] (setting [5]), 3030 nM.

As to `Cc1cccc(-n2nc(C(C)C)c3c(N4CCCCC4)cc(C(=O)O)nc32)c1` [compound 162, 1-(3-methylphenyl)-4-(piperidin-1-yl)-3-(propan-2-yl)-1H-pyrazolo[3,4-b]pyridine-6-carboxylic acid], the “% Activation” value at ΔF508-CFTR [1] is recorded as 399.73%; at ΔF508-CFTR [2] (setting [4]), 147.97%. Also, the EC50 at ΔF508-CFTR [1] came to 808 nM; on ΔF508-CFTR [2] (setting [5]), 992 nM.

As to `COCC1CCN(c2cc(C(=O)O)nc3c2c(C2CCC2)nn3-c2ccnc(C3CCOCC3)c2)CC1` [compound 817, 3-cyclobutyl-4-[4-(methoxymethyl)piperidin-1-yl]-1-[2-(oxan-4-yl)pyridin-4-yl]-1H-pyrazolo[3,4-b]pyridine-6-carboxylic acid], at ΔF508-CFTR [1], the “% Activation” value was determined as 384.9% and the EC50 stood at 46.4 nM. Further, on ΔF508-CFTR [2] (setting [3]), the “% Activation” value was found to be 168% and the EC50 was determined as 152 nM.

Consider `Cc1cccc(-n2nc(C(C)C)c3c(N4CCC(S(C)(=O)=O)CC4)cc(C(=O)O)nc32)c1` [compound 257, 4-[4-(methanesulfonyl)piperidin-1-yl]-1-(3-methylphenyl)-3-(propan-2-yl)-1H-pyrazolo[3,4-b]pyridine-6-carboxylic acid], for which the results for the “% Activation” value at ΔF508-CFTR [1] and on ΔF508-CFTR [2] (setting [4]) were 440.2% and 260.4%, respectively. Moreover, the EC50 came out at 788 nM on ΔF508-CFTR [1] and 2530 nM on ΔF508-CFTR [2] (setting [5]).

In the case of `CN1C(=O)CO[C@@H]2CN(c3cc(C(=O)O)nc4c3c(C3CCC3)nn4-c3ccccc3)C[C@@H]21` [compound 503, 3-cyclobutyl-4-[(4aS,7aR)-4-methyl-3-oxohexahydropyrrolo[3,4-b][1,4]oxazin-6(2H)-yl]-1-phenyl-1H-pyrazolo[3,4-b]pyridine-6-carboxylic acid], at ΔF508-CFTR [1], the “% Activation” value was determined as 220.8% and the EC50 was 3190 nM. At ΔF508-CFTR [2] (setting [3]), the “% Activation” value worked out at 65.78% and the EC50 was determined as 3340 nM.

In the case of `CC(C)c1nn([C@@H]2CCC[C@H](O)C2)c2nc(C(=O)O)cc(-c3ccc(N4CCOCC4)cc3)c12` (racemic) [compound 195, rac-1-[(1R,3S)-3-hydroxycyclohexyl]-4-[4-(morpholin-4-yl)phenyl]-3-(propan-2-yl)-1H-pyrazolo[3,4-b]pyridine-6-carboxylic acid], the figures for the “% Activation” value on ΔF508-CFTR [1] and at ΔF508-CFTR [2] (setting [4]) were 174.9% and 27.46%, respectively. Also, the EC50 on ΔF508-CFTR [1] is 3340 nM; at ΔF508-CFTR [2] (setting [5]) it was greater than 10000 nM.

For the molecule `Cc1cccc(-n2nc(C(C)C)c3c(N4CCCC4)cc(C(=O)O)nc32)c1` [compound 173, 1-(3-methylphenyl)-3-(propan-2-yl)-4-(pyrrolidin-1-yl)-1H-pyrazolo[3,4-b]pyridine-6-carboxylic acid], the figures for the “% Activation” value on ΔF508-CFTR [1] and at ΔF508-CFTR [2] (setting [4]) were 380.52% and 182.82%, respectively. Also, the EC50 is 2530 nM at ΔF508-CFTR [1] and 2950 nM at ΔF508-CFTR [2] (setting [5]).

What is called EC50 is the concentration giving half of the maximal effect.
